Data as given in ChEMBL document CHEMBL3885861, “Open TG-GATES”.

Organism: Rattus norvegicus
Experiment: Open TG-GATES - Regimen: Single
Assay type: toxicity, organism-based, Sprague-Dawley
Parameters: regimen Single, gender Male, age 6 weeks
Settings: in vivo, po, 2 mg/kg, route gavage, dose level Low; for APTT / Bas / Eos / Fbg / Hb / Ht / Lym / MCH / MCHC / MCV / Mono / Neu / PT / Plat / RBC / Ret / WBC: tissue Blood; for KIDNEY_L / KIDNEY_R / KIDNEY_TOTAL: tissue Kidney

With `COc1cc2c(c(OC)c1OC)-c1ccc(OC)c(=O)cc1[C@@H](NC(C)=O)CC2` [COLCHICINE] as the compound, how does the APTT (3 h) read?
The APTT was 16.6 s.

What about the Bas (3 h) of the same compound?
Its Bas is 0%.

What about the Eos (3 h) of the same compound?
Its Eos is 1%.

What about the Fbg (3 h) of the same compound?
Its Fbg is 218.6 mg/dL.

What about the Hb (3 h) of the same compound?
Its Hb is 13.5 g/dL.

And the Ht (3 h)?
Its Ht is 40.7%.

And the Lym (3 h)?
Its Lym is 84.4%.

And the MCH (3 h)?
The MCH was 21.9 pg.

What about the MCHC (3 h) of the same compound?
The MCHC was 33.2%.

And the MCV (3 h)?
Its MCV is 66.1 fL.

What about the Mono (3 h) of the same compound?
Its Mono is 6.2%.

What about the Neu (3 h) of the same compound?
Its Neu is 8.8%.

And the PT (3 h)?
Its PT is 11.8 s.

And the Plat (3 h)?
Its Plat is 109.4 x10_4/uL.

What about the RBC (3 h) of the same compound?
The RBC was 616.8 x10_4/ul.

And the Ret (3 h)?
Its Ret is 10.2%.

And the WBC (3 h)?
The WBC was 106.7 x10_2/uL.

What about the KIDNEY_L (3 h) of the same compound?
Its KIDNEY_L is 1 g.

What about the KIDNEY_R (3 h) of the same compound?
The KIDNEY_R was 1 g.

What about the KIDNEY_TOTAL (3 h) of the same compound?
Its KIDNEY_TOTAL is 2 g.

And the ALP (3 h, tissue Plasma)?
The ALP was 946.8 IU/L.

And the ALT (3 h, tissue Plasma)?
The ALT was 41.6 IU/L.

And the AST (3 h, tissue Plasma)?
Its AST is 84.4 IU/L.

What about the CRE (3 h, tissue Plasma) of the same compound?
Its CRE is 0.5 mg/dL.

And the Cl (3 h, tissue Plasma)?
Its Cl is 104 meq/L.

What about the DBIL (3 h, tissue Plasma) of the same compound?
Its DBIL is 0.01 mg/dL.

What about the GLC (3 h, tissue Plasma) of the same compound?
The GLC was 199.8 mg/dL.

And the IP (3 h, tissue Plasma)?
The IP was 9.3 mg/dL.

And the K (3 h, tissue Plasma)?
The K was 4.7 meq/L.

And the LDH (3 h, tissue Plasma)?
Its LDH is 137.8 IU/L.

What about the Na (3 h, tissue Plasma) of the same compound?
Its Na is 140.2 meq/L.

What about the PL (3 h, tissue Plasma) of the same compound?
The PL was 143.6 mg/dL.

And the RALB (3 h, tissue Plasma)?
Its RALB is 3.7 g/dL.

And the TBIL (3 h, tissue Plasma)?
The TBIL was 0.4 mg/dL.

What about the TC (3 h, tissue Plasma) of the same compound?
The TC was 80.6 mg/dL.

And the TG (3 h, tissue Plasma)?
The TG was 57.6 mg/dL.

And the TP (3 h, tissue Plasma)?
Its TP is 5.5 g/dL.

And the gamma-GTP (3 h, tissue Plasma)?
Its gamma-GTP is 1.8 IU/L.

What about the TERMINAL_BW (6 h) of the same compound?
Its TERMINAL_BW is 217.7 g.

And the APTT (6 h)?
The APTT was 16.3 s.

What about the Bas (6 h) of the same compound?
The Bas was 0%.

And the Eos (6 h)?
Its Eos is 1%.

What about the Fbg (6 h) of the same compound?
Its Fbg is 218.8 mg/dL.

And the Hb (6 h)?
The Hb was 13.4 g/dL.

And the Ht (6 h)?
The Ht was 40.8%.

And the Lym (6 h)?
Its Lym is 81%.

And the MCH (6 h)?
The MCH was 21.6 pg.

What about the MCHC (6 h) of the same compound?
The MCHC was 32.7%.

What about the MCV (6 h) of the same compound?
The MCV was 65.9 fL.

What about the Mono (6 h) of the same compound?
The Mono was 6.8%.

What about the Neu (6 h) of the same compound?
Its Neu is 11.2%.

What about the PT (6 h) of the same compound?
The PT was 11.9 s.

What about the Plat (6 h) of the same compound?
The Plat was 109.8 x10_4/uL.

And the RBC (6 h)?
Its RBC is 620 x10_4/ul.

What about the Ret (6 h) of the same compound?
The Ret was 9.8%.

And the WBC (6 h)?
The WBC was 115.2 x10_2/uL.

And the KIDNEY_L (6 h)?
The KIDNEY_L was 0.9 g.

And the KIDNEY_R (6 h)?
Its KIDNEY_R is 0.9 g.

What about the KIDNEY_TOTAL (6 h) of the same compound?
Its KIDNEY_TOTAL is 1.9 g.

What about the ALT (6 h, tissue Plasma) of the same compound?
The ALT was 40.8 IU/L.

What about the AST (6 h, tissue Plasma) of the same compound?
The AST was 81.8 IU/L.

What about the CRE (6 h, tissue Plasma) of the same compound?
Its CRE is 0.5 mg/dL.

What about the Cl (6 h, tissue Plasma) of the same compound?
Its Cl is 104.4 meq/L.

And the DBIL (6 h, tissue Plasma)?
The DBIL was 0.03 mg/dL.

What about the GLC (6 h, tissue Plasma) of the same compound?
The GLC was 188.6 mg/dL.

And the IP (6 h, tissue Plasma)?
Its IP is 9.8 mg/dL.

And the K (6 h, tissue Plasma)?
Its K is 4.7 meq/L.

What about the LDH (6 h, tissue Plasma) of the same compound?
Its LDH is 113.6 IU/L.

What about the Na (6 h, tissue Plasma) of the same compound?
The Na was 140.2 meq/L.

What about the PL (6 h, tissue Plasma) of the same compound?
The PL was 131.6 mg/dL.

What about the RALB (6 h, tissue Plasma) of the same compound?
Its RALB is 3.7 g/dL.

And the TBIL (6 h, tissue Plasma)?
Its TBIL is 0.4 mg/dL.

What about the TC (6 h, tissue Plasma) of the same compound?
Its TC is 73 mg/dL.

And the TG (6 h, tissue Plasma)?
Its TG is 49.6 mg/dL.

And the TP (6 h, tissue Plasma)?
The TP was 5.5 g/dL.

What about the gamma-GTP (6 h, tissue Plasma) of the same compound?
Its gamma-GTP is 1.2 IU/L.

What about the TERMINAL_BW (9 h) of the same compound?
Its TERMINAL_BW is 215.3 g.
